Source: PMC6804162, “Inhibitory Effects of Novel 7-Substituted 6-iodo-3-O-Flavonol Glycosides against Cholinesterases and β-secretase Activities, and Evaluation for Potential Antioxidant Properties” (Molecules, 2019)
Where “and” joins values, the source holds several entries; their conditions need not be identical. Equal values may be shown once.

Experiments:
[1] = target: acetylcholinesterase (AChE) (Homo sapiens, UniProt P22303); assay: biochemical; format: biochemical; details: for SI BChE/AChE: AChE selectivity index = IC50 (BChE)/IC50 (AChE); for IC50: mean ± SD, three independent experiments
Chain of acetylcholinesterase (AChE) (P22303 32-614): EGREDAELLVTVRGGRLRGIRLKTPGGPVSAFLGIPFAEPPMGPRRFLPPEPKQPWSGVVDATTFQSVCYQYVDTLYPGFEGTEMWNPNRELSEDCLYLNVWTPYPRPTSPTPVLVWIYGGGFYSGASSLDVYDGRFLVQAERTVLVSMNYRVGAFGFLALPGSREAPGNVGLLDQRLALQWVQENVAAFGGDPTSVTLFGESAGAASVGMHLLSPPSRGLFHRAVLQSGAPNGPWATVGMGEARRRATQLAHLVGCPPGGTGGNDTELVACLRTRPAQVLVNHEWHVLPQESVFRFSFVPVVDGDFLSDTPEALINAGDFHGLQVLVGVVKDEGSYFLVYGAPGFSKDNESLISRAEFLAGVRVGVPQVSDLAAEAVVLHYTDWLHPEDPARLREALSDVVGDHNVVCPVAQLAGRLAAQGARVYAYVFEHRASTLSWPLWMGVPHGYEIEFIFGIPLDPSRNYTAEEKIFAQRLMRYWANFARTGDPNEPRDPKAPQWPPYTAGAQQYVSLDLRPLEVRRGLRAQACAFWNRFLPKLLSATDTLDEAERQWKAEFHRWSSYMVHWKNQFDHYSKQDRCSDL
Method: (§1) The IC50 and standard deviation values were determined graphically using Graph Pad Prism.

[2] = target: butyrylcholinesterase (BChE) (Homo sapiens, UniProt P06276); assay: biochemical; details: for SI AChE/BChE: BChE selectivity index = IC50 (AChE)/IC50 (BChE); for IC50: mean ± SD, three independent experiments
Chain of butyrylcholinesterase (BChE) (P06276 29-602): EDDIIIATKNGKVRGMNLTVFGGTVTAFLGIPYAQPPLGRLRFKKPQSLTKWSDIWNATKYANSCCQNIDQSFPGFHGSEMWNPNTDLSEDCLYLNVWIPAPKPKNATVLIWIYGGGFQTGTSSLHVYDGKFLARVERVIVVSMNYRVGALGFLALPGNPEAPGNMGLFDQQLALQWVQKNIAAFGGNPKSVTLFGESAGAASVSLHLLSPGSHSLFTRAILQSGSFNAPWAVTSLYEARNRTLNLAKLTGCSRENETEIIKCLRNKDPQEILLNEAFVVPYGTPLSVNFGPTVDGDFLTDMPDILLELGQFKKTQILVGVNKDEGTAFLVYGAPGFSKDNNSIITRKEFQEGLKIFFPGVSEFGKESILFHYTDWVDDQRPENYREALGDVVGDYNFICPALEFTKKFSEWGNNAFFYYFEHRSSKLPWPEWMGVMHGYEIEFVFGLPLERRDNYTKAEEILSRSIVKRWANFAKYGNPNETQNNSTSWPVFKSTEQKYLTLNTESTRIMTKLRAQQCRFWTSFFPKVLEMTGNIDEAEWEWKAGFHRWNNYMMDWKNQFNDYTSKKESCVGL
Method: as §1

[3] = DPPH radical scavenging activity assay; details: DPPH 0.20 mM in methanol, 45 min in the dark, mean ± SD
Method: The test compounds at various concentration ranging from (0 to 40 µM) in DMSO were mixed with a solution of DPPH (0.20 mM) in methanol. […] All tests and analyses were run in triplicate and averaged. The inhibition was calculated in terms of percentage using the formula below:DPPH radical scavenged (%) = [(AbC ‒ AbS)/AbC] × 100(2) where AbC is absorbance of control and AbS the absorbance of the test sample.

[4] = target: T1, β-secretase (BACE-1) (Homo sapiens, UniProt P56817); assay: In vitro β-secretase inhibitory FRET assay; format: biochemical; details: 60 min incubation, read-out: IC50 (µM) against β-secretase activity
T1 construct: purchased Pan Vera; host or cells: baculovirus expression system
T1 sequence (P56817 46-501): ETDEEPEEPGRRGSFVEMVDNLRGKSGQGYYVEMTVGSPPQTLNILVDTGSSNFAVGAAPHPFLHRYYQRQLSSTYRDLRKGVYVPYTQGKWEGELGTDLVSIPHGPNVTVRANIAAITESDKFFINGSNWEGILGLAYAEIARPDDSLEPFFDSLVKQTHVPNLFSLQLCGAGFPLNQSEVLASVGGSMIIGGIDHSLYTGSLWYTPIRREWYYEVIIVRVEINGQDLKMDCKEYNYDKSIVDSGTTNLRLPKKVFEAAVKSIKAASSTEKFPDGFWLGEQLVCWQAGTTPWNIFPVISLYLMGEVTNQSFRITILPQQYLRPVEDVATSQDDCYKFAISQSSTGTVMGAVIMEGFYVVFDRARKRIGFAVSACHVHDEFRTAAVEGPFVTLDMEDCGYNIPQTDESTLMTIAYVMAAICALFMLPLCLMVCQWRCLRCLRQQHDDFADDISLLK
Method: The inhibition ratio was calculated using the following equation:Inhibition (%) = [1 − (S − S0)/(C − C0)] × 100(1) where C is the fluorescence of control (enzyme, assay buffer, and substrate) after 60 min of incubation, C0 is the fluorescence of control at time 0, S is the fluorescence of tested samples (enzyme, sample solution, and substrate) after 60 min of incubation, and S0 the fluorescence of the tested samples at time 0.

[5] = target: AChE (Homo sapiens, UniProt P22303); assay: Kinetic study against AChE (Lineweaver–Burk and Dixon plots); format: biochemical; details: for Mode of inhibition of AChE: Lineweaver–Burk plot; for Ki: from Dixon plots, read-out: Inhibition constant (Ki) against AChE
Chain of AChE (P22303 32-614): as the sequence (P22303 32-614) above
Method: (§2) The Lineweaver–Burk plots were drawn to determine the type of inhibition these compounds display against AChE and BChE (refer to Figure S2. In the Supplementary Material for the corresponding graphs).
(§3) Kinetic evaluation of 2l and 2p against ChEs or β-secretase were conducted following similar procedures previously employed for the corresponding flavonol precursors.

[6] = target: BChE (Homo sapiens, UniProt P06276); assay: Kinetic study against BChE (Lineweaver–Burk and Dixon plots); format: biochemical; details: for Mode of inhibition of BChE: Lineweaver–Burk plot; for Ki: from Dixon plots
Chain of BChE (P06276 29-602): as the sequence (P06276 29-602) above
Method: as §2, §3

[7] = target: T1, β-secretase (BACE-1); assay: Kinetic study against β-secretase (Lineweaver–Burk and Dixon plots); format: biochemical; details: for Mode of inhibition of β-secretase: Lineweaver–Burk plot; for Ki: from Dixon plots, read-out: Ki for inhibition of β-secretase
Method: as §2, §3

SMILES	SI BChE/AChE [1]	IC50 [1]	SI AChE/BChE [2]	IC50 [2]	IC50 [3]	IC50 [4]	Mode of inhibition of AChE [5]	Ki [5]	Mode of inhibition of BChE [6]	Ki [6]	Mode of inhibition of β-secretase [7]	Ki [7]
CC(=O)OCC1OC(Oc2c(-c3ccc(Cl)cc3)oc3cc(Br)c(I)cc3c2=O)C(OC(C)=O)C(OC(C)=O)C1OC(C)=O (stereo not drawn) [Compound 2k, 7-Bromo-2-(4-chlorophenyl)-6-iodo-4H-chromen-4-one-3-O-2,3,4,6-O-tetraacetyl-β-d-glucopyranoside]	5.78	5.18 ± 0.01 µM	0.17	29.95 ± 0.02 µM	11.4 ± 0.02 µM	–	–	–	–	–	–	–
COc1cc2oc(-c3ccc(Cl)cc3)c(O[C@@H]3O[C@H](COC(C)=O)[C@@H](OC(C)=O)[C@H](OC(C)=O)[C@H]3OC(C)=O)c(=O)c2cc1I [Compound 2o, 2-(4-Chlorophenyl)-6-iodo-7-methoxy-4H-chromen-4-one-3-O-2,3,4,6-O-tetraacetyl-β-d-glucopyranoside]	1.28	28.12 ± 0.06 µM	0.78	36.1 ± 0.02 µM	–	–	–	–	–	–	–	–
COc1ccc(-c2oc3cc(F)c(I)cc3c(=O)c2O[C@@H]2O[C@H](COC(C)=O)[C@@H](OC(C)=O)[C@H](OC(C)=O)[C@H]2OC(C)=O)cc1 [Compound 2d, 7-Fluoro-6-iodo-2-(4-methoxyphenyl)-4H-chromen-4-one-3-O-2,3,4,6-O-tetraacetyl-β-d-glucopyranoside]	0.32	60.4 ± 0.05 µM	3.13	19.25 ± 0.11 µM	–	–	–	–	–	–	–	–
COc1cc2oc(-c3ccccc3)c(O[C@@H]3O[C@H](COC(C)=O)[C@@H](OC(C)=O)[C@H](OC(C)=O)[C@H]3OC(C)=O)c(=O)c2cc1I [Compound 2m, 6-Iodo-7-methoxy-2-phenyl-4H-chromen-4-one-3-O-2,3,4,6-O-tetraacetyl-β-d-glucopyranoside]	0.53	56.21 ± 0.01 µM	1.89	29.8 ± 0.06 µM	–	–	–	–	–	–	–	–
CC(=O)OC[C@H]1O[C@@H](Oc2c(-c3ccccc3)oc3cc(Br)c(I)cc3c2=O)[C@H](OC(C)=O)[C@@H](OC(C)=O)[C@@H]1OC(C)=O [Compound 2i, 7-Bromo-6-iodo-2-phenyl-4H-chromen-4-one-3-O-2,3,4,6-O-tetraacetyl-β-d-glucopyranoside]	0.14	70.56 ± 0.03 µM	7.14	9.79 ± 0.04 µM	–	–	–	–	–	–	–	–
COc1ccc(-c2oc3cc(Cl)c(I)cc3c(=O)c2O[C@@H]2O[C@H](COC(C)=O)[C@@H](OC(C)=O)[C@H](OC(C)=O)[C@H]2OC(C)=O)cc1 [Compound 2h, 7-Chloro-6-iodo-2-(4-methoxyphenyl)-4H-chromen-4-one-3-O-2,3,4,6-O-tetraacetyl-β-d-glucopyranoside]	0.39	25.92 ± 0.02 µM	2.56	10.1 ± 0.06 µM	–	–	–	–	–	–	–	–
COc1cc2oc(-c3ccc(F)cc3)c(OC3OC(COC(C)=O)C(OC(C)=O)C(OC(C)=O)C3OC(C)=O)c(=O)c2cc1I (stereo not drawn) [Compound 2n, 2-(4-Fluorophenyl)-6-Iodo-7-methoxy-4H-chromen-4-one-3-O-2,3,4,6-O-tetraacetyl-β-d-glucopyranoside]	5.49	6.33 µM and 6.23 µM	0.18	34.21 ± 0.02 µM	14.4 ± 0.02 µM	–	–	–	–	–	–	–
COc1ccc(-c2oc3cc(OC)c(I)cc3c(=O)c2OC2OC(COC(C)=O)C(OC(C)=O)C(OC(C)=O)C2OC(C)=O)cc1 (stereo not drawn) [Compound 2p, 6-Iodo-7-methoxy-2-(4-methoxyphenyl)-4H-chromen-4-one-3-O-2,3,4,6-O-tetraacetyl-β-d-glucopyranoside]	0.57	9.19 ± 0.03 µM	1.75	5.21 ± 0.03 µM	17.9 ± 0.04 µM	25.2 ± 0.15 µM	non-competitive	2.36 ± 0.32 µM	non-competitive	1.62 ± 0.03 µM	non-competitive	2.94 ± 0.02 µM
CC(=O)OC[C@H]1O[C@@H](Oc2c(-c3ccc(F)cc3)oc3cc(Cl)c(I)cc3c2=O)[C@H](OC(C)=O)[C@@H](OC(C)=O)[C@@H]1OC(C)=O [Compound 2f, 7-Chloro-2-(4-fluorophenyl)-6-iodo-4H-chromen-4-one-3-O-2,3,4,6-O-tetraacetyl-β-d-glucopyranoside]	0.44	70.66 ± 0.01 µM	2.27	31.09 ± 0.04 µM	–	–	–	–	–	–	–	–
O=C1O[C@H]([C@@H](O)CO)C(O)=C1O [Ascorbic acid, ascorbic acid, reference compound]	–	–	–	–	5.5 ± 0.02 µM	–	–	–	–	–	–	–
COc1ccc(-c2oc3cc(Br)c(I)cc3c(=O)c2OC2OC(COC(C)=O)C(OC(C)=O)C(OC(C)=O)C2OC(C)=O)cc1 (stereo not drawn) [Compound 2l, 7-Bromo-6-iodo-2-(4-methoxyphenyl)-4H-chromen-4-one-3-O-2,3,4,6-O-tetraacetyl-β-d-glucopyranoside]	1.43	5.05 ± 0.02 µM	0.70	7.24 ± 0.03 µM	21.6 ± 0.03 µM	18.3 ± 0.01 µM	non-competitive	1.38 ± 0.62 µM	non-competitive	1.51 ± 0.04 µM	non-competitive	2.42 ± 0.05 µM
CC(=O)OC[C@H]1O[C@@H](Oc2c(-c3ccccc3)oc3cc(F)c(I)cc3c2=O)[C@H](OC(C)=O)[C@@H](OC(C)=O)[C@@H]1OC(C)=O [Compound 2a, 7-Fluoro-6-iodo-2-phenyl-4H-chromen-4-one-3-O-2,3,4,6-O-tetraacetyl-β-d-glucopyranoside]	1.40	18.72 ± 0.03 µM	0.71	26.17 ± 0.01 µM	–	–	–	–	–	–	–	–
CC(=O)OC[C@H]1O[C@@H](Oc2c(-c3ccc(F)cc3)oc3cc(F)c(I)cc3c2=O)[C@H](OC(C)=O)[C@@H](OC(C)=O)[C@@H]1OC(C)=O [Compound 2b, 7-Fluoro-(4-fluorophenyl)-6-iodo-4H-chromen-4-one-3-O-2,3,4,6-O-tetraacetyl-β-d-glucopyranoside]	0.78	28.2 ± 0.02 µM	1.3	21.9 ± 0.04 µM	–	–	–	–	–	–	–	–
CC(=O)OC[C@H]1O[C@@H](Oc2c(-c3ccc(F)cc3)oc3cc(Br)c(I)cc3c2=O)[C@H](OC(C)=O)[C@@H](OC(C)=O)[C@@H]1OC(C)=O [Compound 2j, 7-Bromo-2-(4-fluorophenyl)-6-iodo-4H-chromen-4-one-3-O-2,3,4,6-O-tetraacetyl-β-d-glucopyranoside]	1.31	31.2 ± 0.05 µM	0.76	40.93 ± 0.04 µM	–	–	–	–	–	–	–	–
CC(=O)OCC1OC(Oc2c(-c3ccccc3)oc3cc(Cl)c(I)cc3c2=O)C(OC(C)=O)C(OC(C)=O)C1OC(C)=O (stereo not drawn) [Compound 2e, 7-Chloro-6-iodo-2-phenyl-4H-chromen-4-one-3-O-2,3,4,6-O-tetraacetyl-β-d-glucopyranoside]	0.26	34.44 ± 0.03 µM	3.85	9.03 ± 0.12 µM	–	–	–	–	–	–	–	–
O=c1c(O)c(-c2ccc(O)c(O)c2)oc2cc(O)cc(O)c12 [Quercetin, quercetin, reference compound]	–	–	–	–	3.1 µM	–	–	–	–	–	–	–
CC(=O)OC[C@H]1O[C@@H](Oc2c(-c3ccc(Cl)cc3)oc3cc(F)c(I)cc3c2=O)[C@H](OC(C)=O)[C@@H](OC(C)=O)[C@@H]1OC(C)=O [Compound 2c, 7-Fluoro-2-(4-Chlorophenyl)-6-iodo-4H-chromen-4-one-3-O-2,3,4,6-O-tetraacetyl-β-d-glucopyranoside]	1.25	24.74 ± 0.03 µM	0.80	30.84 ± 0.04 µM	–	–	–	–	–	–	–	–
CC(=O)OCC1OC(Oc2c(-c3ccc(Cl)cc3)oc3cc(Cl)c(I)cc3c2=O)C(OC(C)=O)C(OC(C)=O)C1OC(C)=O (stereo not drawn) [Compound 2g, 7-Chloro-2-(4-chlorophenyl)-6-iodo-4H-chromen-4-one-3-O-2,3,4,6-O-tetraacetyl-β-d-glucopyranoside]	0.23	31.44 ± 0.13 µM	4.35	7.15 ± 0.01 µM	13.1 ± 0.01 µM	–	–	–	–	–	–	–
